From the METLIN SMRT retention time set (Domingo-Almenara et al. 2019)

assay: gradient 5% acetonitrile 3 min, to 50% in 2 min, to 85% in 15 min, held 3 min, 100 µL/min; conditions: column: Zorbax Extend-C18 2.1 x 50 mm; eluents: water / acetonitrile, 0.1% formic acid
Summary of the method: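 Mixtures of ~100 pure standards were chromatographed on a Zorbax Extend-C18 column (2.1 × 50 mm, 1.8 μm) at 100 μL/min using water and acetonitrile, each with 0.1% formic acid. Detection used a quadrupole time-of-flight mass spectrometer in positive and negative ionization mode, and data collection spanned 3 months. Retention time was obtained from adduct peaks picked computationally and each checked manually.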

| RP-LC retention time | Structure (SMILES) |
| --- | --- |
| 586 s | O=C1CCCN1CCCN(CC(=O)N1CCNCC1)C(=O)c1ccc(Cl)cc1 |
| 962 s | CSc1ccc(CNC(=O)Cn2c(=O)cc(-c3nc(C4CC4)no3)c3ccccc32)cc1 |
| 938 s | Cn1cc(S(=O)(=O)N2CCCCC2)cc1C(=O)N1CCc2ccccc2C1 |
| 924 s | COc1ccc(OC)c(-c2cn3ccn(-c4cccc(Cl)c4C)c(=O)c3n2)c1 |
| 774 s | O=C(NC1CCCc2c1[nH]c1ccc(F)cc21)c1ccncc1 (stereo not given) |
| 1000 s | CCN1C(=O)CCc2cc(NS(=O)(=O)c3cccc(Cl)c3)ccc21 |
| 831 s | COc1ccc(NC(=O)c2cc(C(C)C)n(C3CCS(=O)(=O)C3)n2)cc1 (stereo not given) |
| 881 s | CC(NC(=O)Cn1cc(C#N)c2ccccc21)c1ccc2c(c1)OCCCO2 (stereo not given) |
| 637 s | c1cc(-n2nnc3cnccc32)ccn1 |
| 1050 s | Fc1ccc(Nc2nc(NCC3CCCO3)nc3c2cnn3-c2ccccc2)cc1 (stereo not given) |
| 889 s | O=C(Nc1ccc2nc3n(c(=O)c2c1)CCCCC3)C(=O)N1CCc2ccccc21 |
| 1110 s | Cc1ccc(C(=O)Nc2nc3c(s2)CN(S(=O)(=O)c2ccccc2)CC3)cc1Br |
| 702 s | CCC(=O)Nc1ccc(CCc2nc3ccc(C(=O)NC(c4cccs4)C(C)C)cc3[nH]2)cc1 (stereo not given) |
| 968 s | Cc1cccc(-n2c(=O)c3c(cc(C)n3C)n(CC(=O)Nc3ccc(C(F)(F)F)cc3)c2=O)c1 |
| 1020 s | Cc1ccc(S(=O)(=O)N2CCCC2C(=O)Nc2ccc(Br)cc2)cc1 (stereo not given) |
| 913 s | O=C(c1cccc(Cl)c1)N1CCN(C(=O)c2nnn3c2COC(c2ccc(F)cc2)C3)CC1 (stereo not given) |
| 968 s | COc1ccc(-c2nc(Cn3ccn4nc(-c5ccc(OC)c(OC)c5)cc4c3=O)c(C)o2)cc1 |
| 952 s | CN1C(=O)COc2ccc(-c3csc(NC(=O)c4ccc(F)cc4)n3)cc21 |
| 714 s | Cc1cc(C)cc(C(=O)N2CCCC(C(=O)NC3CC3)C2)c1 (stereo not given) |
| 676 s | Cc1noc(C)c1CC(=O)N1CCOc2ccc(NC(=O)C3CC3)cc2C1 |
| 767 s | C=CCNC(=O)C1CCN(S(=O)(=O)c2cc(Cl)ccc2OCC)CC1 |
| 1260 s | Cc1ccc(NS(=O)(=O)c2cc(-c3nc(C(C)C)cs3)cs2)cc1C |
| 737 s | COc1cccc(N2CCN(C(=O)C3CCCN(c4cnc5nccnc5c4)C3)CC2)c1 (stereo not given) |

| RP-LC retention time | Structure (SMILES) |
| --- | --- |
| 692 s | CC(C)c1cccc(NC(=O)C2CCCN(c3cn[nH]c(=O)c3)C2)c1 (stereo not given) |
| 1010 s | Cc1ccc(C)c(NC(=O)c2cn(-c3ncccc3-c3nc(C(C)C)no3)cn2)c1 |
| 980 s | COc1cccc(-c2cc(=O)n3c4ccccc4n(CC(=O)Nc4ccc(F)cc4)c3n2)c1 |
| 718 s | COc1cc(NC(=O)CN2C(=O)COc3ccc(C(=O)N4CCCC4)cc32)cc(OC)c1 |
| 640 s | COCCNC(=O)c1cc(-c2ccncc2)cn1Cc1ccc(C)cc1 |
| 557 s | Cc1cnc(C2CCOCC2)n1C1CCCN(Cc2c[nH]c3ccccc23)C1 (stereo not given) |
| 822 s | O=C(c1ccc(F)cc1)N1CCC(C(=O)N2CCc3ccccc32)CC1 |
| 600 s | CC(=O)Nc1ccc(S(=O)(=O)NCCc2csc(C)n2)cc1 |
| 672 s | CC(C)CN1C(=O)c2cccn2CC1CNC(=O)c1ccco1 (stereo not given) |
| 637 s | CN(C)C(=O)c1ccc2c(c1)nc(CN(C)C(=O)Nc1ccc(Br)cc1F)n2C |
| 968 s | CC(C)(C)c1noc(-c2cccnc2-n2cnc(C(=O)NC3CCCC3)c2)n1 |
| 575 s | O=C(NCCCn1cccn1)C1CCc2nc(N3CCCC3)ncc2C1 (stereo not given) |
| 813 s | Cc1cccc(NS(=O)(=O)c2ccc3c(c2)CCCC(=O)N3)c1C |
| 990 s | O=c1n(Cc2ccc(F)cc2Cl)nc2ccc(S(=O)(=O)N3CCCCC3)cn12 |
| 1310 s | Cc1ccc(OCC(=O)Nc2nc(-c3ccccc3)cs2)c(Br)c1 |
| 798 s | Cc1ccccc1CC(=O)N1CCC2(CC1)NC(=O)c1ccc(F)cc1N2C |
| 986 s | CCc1nn2c(CNS(=O)(=O)c3cc(C)ccc3C)c(-c3ccccc3)nc2s1 |
| 732 s | CC1=C(c2ccc(C)cc2)S(=O)(=O)N=C1N1CCCN(C(=O)C2CCOC2)CC1 (stereo not given) |
| 919 s | COC(=O)c1cc(OC)c(OC)cc1NC(=O)CCc1ccc(C)o1 |
| 624 s | O=C(Nc1ccccc1F)N1CCN(CCn2c(C(F)(F)F)nc3cccnc32)CC1 |
| 650 s | COc1ccc(-c2nnc(CC(=O)NCC3CCCO3)o2)cc1 (stereo not given) |
| 940 s | O=C(Nc1ccc(Cl)c(Cl)c1)N1CCN(c2ncc(C(F)(F)F)cc2Cl)CC1 |
| 579 s | Cc1cc(C)n(CCC(=O)NC2CCN(c3ccc(=O)[nH]n3)C2)n1 (stereo not given) |

| RP-LC retention time | Structure (SMILES) |
| --- | --- |
| 991 s | Fc1ccc(Cn2cc(-c3noc(C4CCCC4)n3)nn2)cc1 |
| 862 s | Cc1ccc(N2CCC(NC(=O)c3ccccc3)C2=O)cc1C (stereo not given) |
| 876 s | CCCn1cc(CCNC(=O)Nc2ccc(Cl)cc2F)c2cccnc21 |
| 599 s | CCCCN1CCN(C(=O)C2CC(=O)N(c3ccc4c(c3)CCN4C(=O)C3CC3)C2)CC1 (stereo not given) |
| 972 s | COc1ccc(OC)c(S(=O)(=O)N2CCCC(C(=O)Nc3cccc(SC)c3)C2)c1 (stereo not given) |
| 573 s | COCCOC1CN(C2CCN(Cc3cccc(C)c3)CC2)C12CCCCC2 (stereo not given) |
| 626 s | CCN1CCN(CCNC(=O)c2cc(-c3ccc(C)cc3)cn2C)CC1 |
| 622 s | CC(=O)N1CCN(C(=O)C2CCCN(c3ccc(-c4ccc(C)c(C)c4)nn3)C2)CC1 (stereo not given) |
| 1190 s | CCc1nc2cc(-c3noc(CCc4ccccc4OC)n3)ccc2o1 |
| 864 s | CC(C)N1C(=O)c2cccnc2Sc2cc(NC(=O)c3ccccc3)ccc21 |
| 1100 s | COc1ccc(-c2nc(Cn3ccn4nc(-c5ccc6c(c5)OCO6)cc4c3=O)c(C)o2)cc1 |
| 631 s | CCNC(=O)c1nc(C(=O)NC2CC2)cs1 |
| 731 s | Cn1ncc2c(Nc3ccc(O)cc3)nc(Cl)nc21 |
| 805 s | CN(Cc1cccn1C)C(=O)NC(C)(C)C |
| 717 s | Cn1c(=O)c(=O)n(CC(=O)NCc2cccc(Br)c2)c2cccnc21 |
| 904 s | Cc1cc2c(=O)n(CC(=O)Nc3cccc(C(C)C)c3)ccc2s1 |
| 861 s | CCCN1CCCCc2cc(C(=O)NC)sc21 |
| 723 s | O=C(Nc1cccc(F)c1)c1c(O)c2cccnc2n(-c2cccc(F)c2)c1=O |
| 994 s | Cc1ccc(CNC(=O)N2CCCC2c2nc(-c3ccccc3)no2)cc1 (stereo not given) |
| 684 s | Cc1ccc(S(=O)(=O)N2CCC3(CCN(c4cccnc4)C3)C2)c(C)c1 (stereo not given) |
| 598 s | O=C(c1cc(-c2cccnc2)n[nH]1)N1CCN(C(=O)c2cccc3[nH]ccc23)CC1 |
| 836 s | CCS(=O)(=O)Nc1ccc(-c2noc(C(C)NS(=O)(=O)c3ccc(C)cc3)n2)cc1 (stereo not given) |
| 1130 s | Cc1noc(-c2cccn2Cc2c(F)cccc2Cl)n1 |

| RP-LC retention time | Structure (SMILES) |
| --- | --- |
| 882 s | CCc1ccc(NC(=O)Cn2c(=O)c3cc(-c4ccco4)nn3c3ncccc32)cc1 |
| 753 s | CC1(C)CC2(CCO1)OC(=O)CC2C(=O)Nc1ccccc1Cl (stereo not given) |
| 812 s | Cc1cc2c(=O)n(CC(=O)Nc3ccc(F)cc3Cl)ccc2s1 |
| 791 s | O=C(NCCc1ccccc1)c1ccc2c(cnn2CC(=O)N2CCCCCC2)c1 |
| 906 s | COc1ccc(-c2cc(=O)c3c(O)c(OC)c(OC)cc3o2)cc1O |
| 862 s | CCN(C(=O)Cn1nc2cc(-c3ccccc3)nc(C)n2c1=O)c1cccc(C)c1 |
| 714 s | O=C(NCCCN1CCCC1=O)c1csc(N2CCN(c3ccc(F)cc3)CC2)n1 |
| 682 s | O=C(Cn1ncc2c(c1=O)N(C1CC1)C(=O)CS2)NCc1ccc2c(c1)OCO2 |
| 674 s | COc1ccc(-c2cc3c(=O)n(Cc4noc(CN5CCCCC5C)n4)ccn3n2)cc1 (stereo not given) |
| 587 s | CN(Cc1nc2ccccc2n1CC(=O)N1CCOCC1)C(=O)c1ccco1 |
| 734 s | Cn1nc(C(=O)N2CC(n3cc(C(=O)NCC4CC4)nn3)C2)c2ccccc21 |
| 640 s | COc1ccc(NC(=O)C2(C)CCCCC(=O)N2)cc1 (stereo not given) |
| 607 s | CNC(=O)c1cc(C)nc2ccc(Cl)cc12 |
| 806 s | COc1ccc(OC)c(NC(=O)N2CCC(C)(C(=O)NCc3ccc4c(c3)OCO4)CC2)c1 |
| 618 s | COc1ccc(C(=O)N2CCc3ccc(C(=O)NC4CCN(C)CC4)cc32)cc1 |
| 618 s | CCCCC(=O)N1CCN(c2nc(C)cc(NCC)n2)CC1 |
| 895 s | COc1ccccc1N1CCN(c2cc(SCC(=O)Nc3cccc(C#N)c3)ncn2)CC1 |
| 794 s | O=C(Cc1ccccc1F)N1CCN(c2cc(-c3cccs3)[nH]n2)CC1 |
| 1110 s | Cc1ccc(CNC(=O)CN2C(=O)CSc3cccn3-c3ccccc32)cc1 |
| 779 s | CCN(CC)C(=O)c1ccc2c(c1)nnn2CCNC(=O)Nc1ccc(Br)cc1 |

| Structure (SMILES) | RP-LC retention time |
| --- | --- |
| CS(=O)(=O)N1CCCC(C(=O)Nc2ccc(Cl)cc2C(=O)c2ccccc2)C1 (stereo not given) | 869 s |
